Assay results published in ChEMBL document CHEMBL5370604, “Identification of Micrococcin P2-Derivatives as Antibiotic Candidates against Two Gram-Positive Pathogens” (J Med Chem, 2023).
Values after ≈ are worked out from the molar mass of the structure shown. Values belong to the molecule of their own block, whether it stands above or below them. Active and inactive are the calls of the source. The rule behind the calls is not given here.

Key:
Clostridioides difficile [1] = assay: Antibacterial activity against Clostridioides difficile RT130/ST5/A+B+CDT+ assessed as inhibition of bacterial growth measured after 24 hrs by CLSI based broth dilution method; assay type: functional
Clostridioides difficile [2] = assay: Antibacterial activity against Clostridioides difficile RT078/ST11/A+B+CDT+ assessed as inhibition of bacterial growth measured after 24 hrs by CLSI based broth dilution method; assay type: functional
Clostridioides difficile [3] = assay: Antibacterial activity against Clostridioides difficile RT293/ST129/A+B+ assessed as inhibition of bacterial growth measured after 24 hrs by CLSI based broth dilution method; assay type: functional
Clostridioides difficile [4] = assay: Antibacterial activity against Clostridioides difficile RT027/ST1/A+B+CDT+ assessed as inhibition of bacterial growth measured after 24 hrs by CLSI based broth dilution method; assay type: functional
Staphylococcus aureus = assay: Antibacterial activity against Staphylococcus aureus ATCC 4330 assessed as inhibition of bacterial growth measured after 16 to 24 hrs by CLSI based broth dilution method; assay type: functional; settings: time 16-24 hrs
Clostridioides difficile [5] = assay: Antibacterial activity against Clostridioides difficile RT017/ST37/A-B+ assessed as inhibition of bacterial growth measured after 24 hrs by CLSI based broth dilution method; assay type: functional
Clostridioides difficile [6] = assay: Antibacterial activity against Clostridioides difficile ATCC 43255 assessed as inhibition of bacterial growth measured after 24 hrs by CLSI based broth dilution method; assay type: functional
Clostridioides difficile [7] = assay: Antibacterial activity against Clostridioides difficile RT002/ST8/A+B+ assessed as inhibition of bacterial growth measured after 24 hrs by CLSI based broth dilution method; assay type: functional
Clostridioides difficile [8] = assay: Antibacterial activity against Clostridioides difficile RT015/ST35/A+B+ assessed as inhibition of bacterial growth measured after 24 hrs by CLSI based broth dilution method; assay type: functional
Clostridioides difficile [9] = assay: Antibacterial activity against Clostridioides difficile RT014/ST14/A+B+ assessed as inhibition of bacterial growth measured after 24 hrs by CLSI based broth dilution method; assay type: functional
Clostridioides difficile [10] = assay: Antibacterial activity against Clostridioides difficile RT012/ST54/A+B+ assessed as inhibition of bacterial growth measured after 24 hrs by CLSI based broth dilution method; assay type: functional
Clostridioides difficile [11] = assay: Antibacterial activity against Clostridioides difficile NT/ST67/A+B+CDT+ assessed as inhibition of bacterial growth measured after 24 hrs by CLSI based broth dilution method; assay type: functional
Clostridioides difficile [12] = assay: Antibacterial activity against Clostridioides difficile NT/ST221/A+B+CDT+ assessed as inhibition of bacterial growth measured after 24 hrs by CLSI based broth dilution method; assay type: functional
Clostridioides difficile [13] = assay: Antibacterial activity against Clostridioides difficile RT001/ST3/A+B+ assessed as inhibition of bacterial growth measured after 24 hrs by CLSI based broth dilution method; assay type: functional
Clostridioides difficile [14] = assay: Antibacterial activity against Clostridioides difficile RT018/ST17/A+B+ assessed as inhibition of bacterial growth measured after 24 hrs by CLSI based broth dilution method; assay type: functional
[15] = Aqueous kinetic solubility of the compound at pH 7.4 incubated for 2 hrs by UPLC-MS analysis; assay type: physicochemical; settings: read-out: Kinetic_solubility
Clostridioides difficile [16] = assay: Antibacterial activity against Clostridioides difficile ribotype 027 infected in colitis induced C57BL/6J mouse assessed as survival rate at 30 mg/kg, po qd pretreated with clindamycin followed by […] infection and compound addition measured on day 5; assay type: functional; settings: ribotype 027, 120 h, time 5 day
Clostridioides difficile [17] = assay: Antibacterial activity against Clostridioides difficile ribotype 027 infected in colitis induced C57BL/6J mouse assessed as increase in survival rate without recurrence at 30 mg/kg, po qd pretreated with clindamycin followed by […] infection and compound addition measured on day 10 to day 11; assay type: functional, organism-based; settings: time 10-11 day

MIC (Clostridioides difficile [1]): 0.5 µg/mL (≈ 0.408 µM)
MIC (Clostridioides difficile [2]): 0.5 µg/mL (≈ 0.408 µM)
MIC (Clostridioides difficile [3]): 0.5 µg/mL (≈ 0.408 µM)
MIC (Clostridioides difficile [4]): 0.5 µg/mL (≈ 0.408 µM)
MIC (Staphylococcus aureus): 1 µg/mL (≈ 0.815 µM)
MIC (Clostridioides difficile [5]): 0.5 µg/mL (≈ 0.408 µM)
MIC (Clostridioides difficile [6]): 0.125 µg/mL (≈ 0.102 µM)
MIC (Clostridioides difficile [7]): 0.5 µg/mL (≈ 0.408 µM)
MIC (Clostridioides difficile [8]): 0.25 µg/mL (≈ 0.204 µM)
MIC (Clostridioides difficile [9]): 0.5 µg/mL (≈ 0.408 µM)
MIC (Clostridioides difficile [10]): 0.5 µg/mL (≈ 0.408 µM)
MIC (Clostridioides difficile [11]): 0.5 µg/mL (≈ 0.408 µM)
MIC (Clostridioides difficile [12]): 0.5 µg/mL (≈ 0.408 µM)
MIC (Clostridioides difficile [13]): 0.25 µg/mL (≈ 0.204 µM)
MIC (Clostridioides difficile [14]): 0.25 µg/mL (≈ 0.204 µM)
SMILES: C/C=C1\NC(=O)[C@H]([C@@H](C)O)NC(=O)c2csc(n2)-c2ccc(-c3nc(-c4nc(C(=O)NC5(C(=O)NCCCN6C(=O)CNC6=O)CC5)cs4)cs3)nc2-c2csc(n2)[C@H]([C@@H](C)O)NC(=O)c2csc(n2)[C@H](C(C)C)NC(=O)c2csc1n2

MIC (Staphylococcus aureus): 1 µg/mL (≈ 0.834 µM)
MIC (Clostridioides difficile [6]): 2 µg/mL (≈ 1.67 µM)
SMILES: C/C=C1\NC(=O)[C@H]([C@@H](C)O)NC(=O)c2csc(n2)-c2ccc(-c3nc(-c4nc(C(=O)NC5(C(=O)NCCN6CCOCC6)CC5)cs4)cs3)nc2-c2csc(n2)[C@H]([C@@H](C)O)NC(=O)c2csc(n2)[C@H](C(C)C)NC(=O)c2csc1n2

SMILES: C/C=C(\NC(=O)c1csc(-c2csc(-c3ccc4c(n3)-c3csc(n3)[C@H]([C@@H](C)O)NC(=O)c3csc(n3)[C@H](C(C)C)NC(=O)c3csc(n3)/C(=C/C)NC(=O)[C@H]([C@@H](C)O)NC(=O)c3csc-4n3)n2)n1)C(=O)NCC(C)=O
solubility kinetic at 2 h [15]: 0.07 µg/mL (≈ 0.0613 µM)
MIC (Staphylococcus aureus): 0.5 µg/mL (≈ 0.438 µM)
MIC (Clostridioides difficile [6]): 1 µg/mL (≈ 0.875 µM)

MIC (Staphylococcus aureus): 1 µg/mL (≈ 0.824 µM)
MIC (Clostridioides difficile [6]): 0.5 µg/mL (≈ 0.412 µM)
SMILES: C/C=C(\NC(=O)c1csc(-c2csc(-c3ccc4c(n3)-c3csc(n3)[C@H]([C@@H](C)O)NC(=O)c3csc(n3)[C@H](C(C)C)NC(=O)c3csc(n3)/C(=C/C)NC(=O)[C@H]([C@@H](C)O)NC(=O)c3csc-4n3)n2)n1)C(=O)NCCCN1CCOCC1

solubility kinetic at 2 h [15]: 2.8 µg/mL
SMILES: C/C=C1\NC(=O)[C@H]([C@@H](C)O)NC(=O)c2csc(n2)-c2ccc(-c3nc(-c4nc(C(=O)NC5(C(=O)NCCCN6CCN(C(C)C)CC6)CC5)cs4)cs3)nc2-c2csc(n2)[C@H]([C@@H](C)O)NC(=O)c2csc(n2)[C@H](C(C)C)NC(=O)c2csc1n2.Cl

SMILES: CCc1c(Cl)c(O)c(Cl)c(O)c1C(=O)O[C@H]1[C@H](O)[C@H](OC)[C@H](OC/C2=C\C=C\C[C@H](O)/C(C)=C/[C@H](CC)[C@@H](O[C@@H]3OC(C)(C)[C@@H](OC(=O)C(C)C)[C@H](O)[C@@H]3O)/C(C)=C/C(C)=C/C[C@@H]([C@@H](C)O)OC2=O)O[C@@H]1C [FIDAXOMICIN]
survival at 30 mg/kg (Clostridioides difficile [16]): 40%
Activity (Clostridioides difficile [17]): inactive

MIC (Staphylococcus aureus): 0.5 µg/mL (≈ 0.403 µM)
MIC (Clostridioides difficile [6]): 0.5 µg/mL (≈ 0.403 µM)
SMILES: C/C=C1\NC(=O)[C@H]([C@@H](C)O)NC(=O)c2csc(n2)-c2ccc(-c3nc(-c4nc(C(=O)NC5(C(=O)NCCn6c([N+](=O)[O-])cnc6C)CC5)cs4)cs3)nc2-c2csc(n2)[C@H]([C@@H](C)O)NC(=O)c2csc(n2)[C@H](C(C)C)NC(=O)c2csc1n2

MIC (Staphylococcus aureus): 1 µg/mL (≈ 0.816 µM)
MIC (Clostridioides difficile [6]): 0.5 µg/mL (≈ 0.408 µM)
SMILES: C/C=C(\NC(=O)c1csc(-c2csc(-c3ccc4c(n3)-c3csc(n3)[C@H]([C@@H](C)O)NC(=O)c3csc(n3)[C@H](C(C)C)NC(=O)c3csc(n3)/C(=C/C)NC(=O)[C@H]([C@@H](C)O)NC(=O)c3csc-4n3)n2)n1)C(=O)NCCn1ccnc1[N+](=O)[O-]

MIC (Staphylococcus aureus): 1 µg/mL (≈ 0.807 µM)
MIC (Clostridioides difficile [6]): 0.25 µg/mL (≈ 0.202 µM)
SMILES: C/C=C(\NC(=O)c1csc(-c2csc(-c3ccc4c(n3)-c3csc(n3)[C@H]([C@@H](C)O)NC(=O)c3csc(n3)[C@H](C(C)C)NC(=O)c3csc(n3)/C(=C/C)NC(=O)[C@H]([C@@H](C)O)NC(=O)c3csc-4n3)n2)n1)C(=O)NCCn1cc([N+](=O)[O-])nc1C
